# Values quoted from earlier work as cited in patent US12171869B2, “Intracameral drug delivery depots” (Incept, LLC., priority 2016, dated 2024).
# Values joined by “and” are separate entries in the source; they are usually repeats but may differ in a detail not shown here. Identical values can stand only once.
# Assays:
# [1] = intracameral administration, clinical studies (Charters 2016); 10 μg dose
# beagle = conditions: 0.004% once a day, normal healthy beagles, 5 treatment days (Carvalho et al., 2006)
# [2] = eye drop studies in humans (Faulkner et al., 2010; Martinez-de-la-Casa et al., 2012)
structure (smiles),measurement,setting,value
CCNC(=O)CCC/C=C\C[C@@H]1[C@@H](/C=C/[C@@H](O)CCc2ccccc2)[C@H](O)C[C@@H]1O [bimatoprost],duration of IOP reduction,[1],up to 4 months
"CC(C)OC(=O)CCC/C=C\C[C@@H]1[C@@H](/C=C/[C@@H](O)COc2cccc(C(F)(F)F)c2)[C@H](O)C[C@@H]1O [travoprost, isopropyl (Z)-7-[(1R,2R,3R,5 S)-3,5-dihydroxy-2-[(1E,3R)-3-hydroxy-4-[(α,α,α-trifluoro-m-tolyl)oxy]-1-butenyl]cyclopentyl]-5-heptenoate]",hyperemia,beagle,hyperemia for the entire treatment period
O=C(O)CCC/C=C\C[C@@H]1[C@@H](/C=C/[C@@H](O)COc2cccc(C(F)(F)F)c2)[C@H](O)C[C@@H]1O [travoprost free acid],travoprost free acid Cmax,[2],~2 ng/mL and ~3 ng/mL
